Assay results reported in ChEMBL document CHEMBL5620346, “Current scenario of pyrazole hybrids with in vivo therapeutic potential against cancers” (Eur J Med Chem, 2023).

Assays:
MCF7 [1] = test: Cytotoxicity against human MCF7 cells assessed as reduction in cell viability incubated for 72 hrs by MTT assay; format: functional, cell-based; conditions: MCF7, 72 h
HeLa = test: Cytotoxicity against human HeLa cells assessed as reduction in cell viability incubated for 72 hrs by MTT assay; format: functional, cell-based
HepG2 [2] = test: Cytotoxicity against human HepG2 cells assessed as reduction in cell viability incubated for 72 hrs by MTT assay; format: functional, cell-based; conditions: HepG2, 72 h
T47D [3] = test: Antitumor activity against human T47D cells xenografted in nude BALB/c mouse assessed as tumor growth inhibition at 40 mg/kg administered via oral gavage for 20 days relative to control; format: functional; conditions: 480 h, time 20 day, read-out: TGI
T47D [4] = test: Antitumor activity against human T47D cells xenografted in nude BALB/c mouse assessed as tumor growth inhibition at 20 mg/kg administered via oral gavage for 20 days relative to control; format: functional; conditions: 480 h, time 20 day, read-out: TGI
T47D [5] = test: Antiproliferative activity against human T47D cells assessed as reduction in cell viability incubated for 72 hrs by MTT assay; format: functional, cell-based
MDA-MB-453 = test: Antiproliferative activity against human MDA-MB-453 cells assessed as reduction in cell viability incubated for 72 hrs by MTT assay; format: functional, cell-based; conditions: MDA-MB-453, 72 h
MDA-MB-231 [6] = test: Antiproliferative activity against human MDA-MB-231 cells assessed as reduction in cell viability incubated for 72 hrs by MTT assay; format: functional, cell-based; conditions: MDA-MB-231, 72 h
BT-549 [7] = test: Antitumor activity against human BT-549 cells xenografted in BALB/c nude mouse assessed as tumor growth inhibition at 30 mg/kg, sc administered for 20 days relative to control; format: functional; conditions: BT-549, 480 h, time 20 day, read-out: TGI
BT-549 [8] = test: Antiproliferative activity against human BT-549 cells assessed as inhibition of cell proliferation incubated for 72 hrs by MTT assay; format: functional, cell-based; conditions: BT-549, 72 h
MCF7 [9] = test: Antiproliferative activity against human MCF7 cells assessed as reduction in cell viability incubated for 72 hrs by MTT assay; format: functional, cell-based; conditions: MCF7, 72 h
[10] = […] in mouse xenografted with human NCI-H526 cells assessed as reduction in tumor growth at 3 mg/kg, po relative to control; format: organism-based; conditions: in vivo
[11] = biological target: Receptor-type tyrosine-protein kinase FLT3 (Homo sapiens, UniProt P36888, D835H); test: Inhibition of FLT3 D835H mutant (unknown origin)
[12] = biological target: Cyclin-dependent kinase 4 (Homo sapiens, UniProt P11802); test: Inhibition of CDK4 (unknown origin)
MV4-11 = test: Antitumor activity against human MV4-11 cells xenografted in mouse assessed as tumor growth inhibition at 200 mg/kg, po relative to control; format: functional; conditions: read-out: TGI
MCF7 [13] = test: Cytotoxicity against human MCF7 cells assessed as reduction in cell viability measured after 72 hrs by SRB assay; format: functional, cell-based; conditions: MCF7, 72 h
MCF-10A = test: Cytotoxicity against human MCF-10A cells assessed as reduction in cell viability measured after 72 hrs by SRB assay; format: functional, cell-based
HepG2 [14] = test: Antiproliferative activity against human HepG2 cells assessed as reduction in cell growth incubated for 72 hrs by SRB assay; format: functional, cell-based; conditions: HepG2, 72 h
NCI-H1975 = test: Antiproliferative activity against human NCI-H1975 cells assessed as reduction in cell growth incubated for 72 hrs by SRB assay; format: functional, cell-based; conditions: NCI-H1975, 72 h
[15] = Antiproliferative activity against HUVEC cells assessed as cell growth inhibition measured after 72 hrs by crystal violet staining based analysis; format: toxicity; conditions: human
K562 = test: Antiproliferative activity against human K562 cells assessed as reduction in cell growth incubated for 72 hrs by SRB assay; format: functional, cell-based; conditions: K562, 72 h
SK-OV-3 = test: Antiproliferative activity against human SK-OV-3 cells assessed as reduction in cell growth incubated for 72 hrs by SRB assay; format: functional, cell-based; conditions: SK-OV-3, 72 h
Bel-7402 = test: Antiproliferative activity against human Bel-7402 cells assessed as reduction in cell growth incubated for 72 hrs by SRB assay; format: functional, cell-based; conditions: Bel-7402, 72 h
MDA-MB-231 [16] = test: Antiproliferative activity against human MDA-MB-231 cells assessed as reduction in cell growth incubated for 72 hrs by SRB assay; format: functional, cell-based; conditions: MDA-MB-231, 72 h
HCT-116 [17] = test: Antiproliferative activity against human HCT-116 cells assessed as reduction in cell growth incubated for 72 hrs by SRB assay; format: functional, cell-based; conditions: HCT-116, 72 h
NCI-H1299 = test: Antiproliferative activity against human NCI-H1299 cells assessed as reduction in cell growth incubated for 72 hrs by SRB assay; format: functional, cell-based; conditions: NCI-H1299, 72 h
U-87 MG = test: Antiproliferative activity against human U87 cells assessed as reduction in cell growth incubated for 72 hrs by SRB assay; format: functional, cell-based, U-87MG ATCC
PANC-1 = test: Antiproliferative activity against human PANC-1 cells assessed as reduction in cell growth incubated for 72 hrs by SRB assay; format: functional, cell-based; conditions: PANC-1, 72 h
[18] = Antiproliferative activity against human 95-D cells assessed as reduction in cell growth incubated for 72 hrs by SRB assay; format: functional, cell-based
HCT-116 [19] = test: Antitumor activity against human HCT-116 cells xenografted in BALB/c nude mouse assessed as tumor growth inhibition at 50 mg/kg, po administered once a daily for 13 consecutive days relative to control; format: functional; conditions: read-out: TGI
HCT-116 [20] = test: Antitumor activity against human HCT-116 cells xenografted in BALB/c nude mouse assessed as tumor growth inhibition at 25 mg/kg, po administered once a daily for 13 consecutive days relative to control; format: functional; conditions: read-out: TGI
[21] = Cytotoxicity against human NCM460 cells assessed as reduction in cell viability incubated for 48 hrs by MTT assay; format: toxicity, cell-based

Cyclin-dependent kinase 4, sequence (P11802 whole entry): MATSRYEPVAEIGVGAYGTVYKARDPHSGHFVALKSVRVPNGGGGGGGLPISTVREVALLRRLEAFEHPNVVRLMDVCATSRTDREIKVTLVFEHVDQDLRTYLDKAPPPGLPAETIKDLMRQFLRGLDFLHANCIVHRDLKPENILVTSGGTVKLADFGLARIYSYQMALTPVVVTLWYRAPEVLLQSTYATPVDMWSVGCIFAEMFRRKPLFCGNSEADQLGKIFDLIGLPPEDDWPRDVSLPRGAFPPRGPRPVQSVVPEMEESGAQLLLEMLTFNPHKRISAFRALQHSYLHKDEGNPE

## CCOC(=O)C1=C(N/C=N/c2cccnc2Cl)Nc2[nH]nc(C)c2C1c1ccc(N(C)C)cc1 (stereo not drawn)
MCF7 [1]
  IC50: 4.24 µM
HeLa
  IC50: 4.18 µM
HepG2 [2]
  IC50: 4.55 µM

## CCOC(=O)C1=C(N)Nc2[nH]nc(C)c2C1c1ccc(N(C)C)cc1 (stereo not drawn)
MCF7 [1]
  IC50: 4.24 µM
HeLa
  IC50: 4.18 µM
HepG2 [2]
  IC50: 4.55 µM

## Cc1n[nH]c2c1C(c1ccc(N(C)C)cc1)C(C(N)=O)=C(N)N2 (stereo not drawn)
MCF7 [1]
  IC50: 4.24 µM
HeLa
  IC50: 4.18 µM
HepG2 [2]
  IC50: 4.55 µM

## COc1ncc(-c2ccc3ncnc(Nc4cnn(CCO)c4)c3c2)cc1NS(=O)(=O)c1ccc(F)cc1F
T47D [3]
  inhibition in vivo at 40 mg/kg: 84.1%
T47D [4]
  inhibition in vivo at 20 mg/kg: 54.1%

## CN(C)S(=O)(=O)Nc1cccc(-c2cnn(-c3ccc(C(F)(F)F)cc3)c2)c1
T47D [5]
  IC50: 3.44 µM
MDA-MB-453
  IC50: 3.44 µM
MDA-MB-231 [6]
  IC50: 3.44 µM
BT-549 [7]
  inhibition in vivo at 30 mg/kg: ~50%
BT-549 [8]
  IC50: 3.44 µM
MCF7 [9]
  IC50: 3.44 µM

## Cc1nnn(C)c1-c1cnc2c3cc4cnn(C)c4cc3n([C@H](c3ccccc3)C3CCOCC3)c2c1
[10]
  TGI: 100%

## CCN1CCN(c2ccc(Nc3ncc(F)c(-c4cnc5cnn(C(C)C)c5c4)n3)cc2OC)CC1
[11]
  IC50: 0.011 µM
[12]
  IC50: 0.007 µM
MV4-11
  inhibition in vivo at 200 mg/kg: 67%

## COc1ccc(C2CC(c3ccc(OC)c(OC)c3)=NN2c2nc(-c3ccccc3)cs2)cc1 (stereo not drawn)
MCF7 [13]
  IC50: 7.21 µM
MCF-10A
  IC50: > 50 µM

## CCOc1ccc(Oc2ccc(C3=NN(C4=NC(=O)CS4)C(c4cc(O)c(O)c(Br)c4Br)C3)cc2)cc1 (stereo not drawn)
HepG2 [14]
  IC50: 2.64 µM
NCI-H1975
  IC50: 2.64 µM
[15]
  IC50 at 72 h: 28.3 µM
K562
  IC50: 2.64 µM
SK-OV-3
  IC50: 2.64 µM
Bel-7402
  IC50: 2.64 µM
MDA-MB-231 [16]
  IC50: 2.64 µM
HCT-116 [17]
  IC50: 2.64 µM
NCI-H1299
  IC50: 2.64 µM
U-87 MG
  IC50: 2.64 µM
PANC-1
  IC50: 2.64 µM
[18]
  IC50: 2.64 µM
HCT-116 [19]
  inhibition in vivo at 50 mg/kg: 67.2%
HCT-116 [20]
  inhibition in vivo at 25 mg/kg: 58.8%
[21]
  IC50 at 48 h: 27.1 µM
